One assay deals with CDK12 (Homo sapiens (Human), UniProt Q9NYV4). The assay can be described thus: Radiometric protein kinase assay (33PanQinase Activity Assay), Assay Condition B (thiol-free conditions). Type of assay: biochemical. The following applies: thiol-free conditions (1 mM TCEP, glutathione removed). Summed up: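 Radiometric 33PanQinase assay under thiol-free conditions: glutathione removed from protein preparations and no thiol reagents in buffer. Ten concentrations, 1×10^−05 M to 3×10^−10 M, singlicate, 1% DMSO final. Residual activity normalised to no-enzyme and no-inhibitor controls; IC50 by least-squares fit.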

A further assay has as its target CDK12 wt/CycK (Homo sapiens (Human), UniProt Q9NYV4). The assay can be described thus: Radiometric protein kinase assay (33PanQinase Activity Assay), Assay Condition A (thiol containing conditions). The settings on record: thiol containing conditions (1.2 mM DTT), ATP 0.3 μM; read-out: CDK12 IC50 Condition A. The assay is classed as biochemical. In outline: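 Recombinant human kinase incubated with [33P]ATP, substrate and compound (10 concentrations, 1×10^−04M to 3×10^−09M, singlicate, 1% DMSO) under thiol-containing buffer conditions, 60 min at 30 °C. 33Pi incorporation counted by scintillation; residual activity normalised to no-inhibitor and no-kinase controls, IC50 derived.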

Assay [1] has as its system panel of 1,151 cancer cell lines. The settings on record: in 52% of 1,151 cancer cell lines; cited from earlier work.

Sequence of CDK12 (Q9NYV4 whole entry): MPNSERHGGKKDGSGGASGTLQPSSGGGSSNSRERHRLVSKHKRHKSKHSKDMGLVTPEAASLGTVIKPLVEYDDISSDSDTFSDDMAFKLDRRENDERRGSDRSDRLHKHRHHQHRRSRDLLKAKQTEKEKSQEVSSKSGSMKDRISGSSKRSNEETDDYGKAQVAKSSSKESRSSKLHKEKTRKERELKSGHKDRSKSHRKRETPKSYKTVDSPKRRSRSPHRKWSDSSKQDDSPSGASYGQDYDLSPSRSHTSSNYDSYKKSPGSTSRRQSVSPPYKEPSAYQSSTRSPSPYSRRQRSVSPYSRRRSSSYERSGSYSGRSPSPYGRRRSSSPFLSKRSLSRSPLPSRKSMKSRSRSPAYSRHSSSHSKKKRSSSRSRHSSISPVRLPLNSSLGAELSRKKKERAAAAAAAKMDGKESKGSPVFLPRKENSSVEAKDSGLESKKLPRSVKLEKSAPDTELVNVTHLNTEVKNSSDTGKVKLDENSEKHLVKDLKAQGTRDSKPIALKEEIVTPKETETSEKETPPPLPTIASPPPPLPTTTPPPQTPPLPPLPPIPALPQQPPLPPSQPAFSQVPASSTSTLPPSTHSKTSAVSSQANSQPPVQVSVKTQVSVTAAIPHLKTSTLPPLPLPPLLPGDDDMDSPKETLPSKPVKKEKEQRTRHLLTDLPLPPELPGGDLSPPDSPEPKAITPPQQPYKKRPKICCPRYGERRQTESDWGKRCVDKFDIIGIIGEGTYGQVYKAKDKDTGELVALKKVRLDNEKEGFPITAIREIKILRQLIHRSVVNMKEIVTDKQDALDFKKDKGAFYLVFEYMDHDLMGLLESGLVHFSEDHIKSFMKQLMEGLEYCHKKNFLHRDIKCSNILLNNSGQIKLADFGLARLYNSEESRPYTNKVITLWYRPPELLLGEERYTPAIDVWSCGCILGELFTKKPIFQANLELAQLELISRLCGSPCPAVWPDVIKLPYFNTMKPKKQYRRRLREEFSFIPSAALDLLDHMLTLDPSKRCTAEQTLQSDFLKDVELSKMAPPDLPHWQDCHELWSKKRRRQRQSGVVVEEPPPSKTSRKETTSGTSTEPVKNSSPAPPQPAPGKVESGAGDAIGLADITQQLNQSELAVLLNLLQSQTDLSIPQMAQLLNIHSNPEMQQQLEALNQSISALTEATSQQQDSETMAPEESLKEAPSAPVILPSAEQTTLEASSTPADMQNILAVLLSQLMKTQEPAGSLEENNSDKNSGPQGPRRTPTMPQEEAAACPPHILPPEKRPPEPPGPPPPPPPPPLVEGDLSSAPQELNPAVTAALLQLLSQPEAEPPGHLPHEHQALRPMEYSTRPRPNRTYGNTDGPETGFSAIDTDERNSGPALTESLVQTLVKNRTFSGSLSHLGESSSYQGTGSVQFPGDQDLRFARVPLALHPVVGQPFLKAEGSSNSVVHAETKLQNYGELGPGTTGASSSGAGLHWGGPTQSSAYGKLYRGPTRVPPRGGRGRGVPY
Sequence of CDK12 (O75909 whole entry partner): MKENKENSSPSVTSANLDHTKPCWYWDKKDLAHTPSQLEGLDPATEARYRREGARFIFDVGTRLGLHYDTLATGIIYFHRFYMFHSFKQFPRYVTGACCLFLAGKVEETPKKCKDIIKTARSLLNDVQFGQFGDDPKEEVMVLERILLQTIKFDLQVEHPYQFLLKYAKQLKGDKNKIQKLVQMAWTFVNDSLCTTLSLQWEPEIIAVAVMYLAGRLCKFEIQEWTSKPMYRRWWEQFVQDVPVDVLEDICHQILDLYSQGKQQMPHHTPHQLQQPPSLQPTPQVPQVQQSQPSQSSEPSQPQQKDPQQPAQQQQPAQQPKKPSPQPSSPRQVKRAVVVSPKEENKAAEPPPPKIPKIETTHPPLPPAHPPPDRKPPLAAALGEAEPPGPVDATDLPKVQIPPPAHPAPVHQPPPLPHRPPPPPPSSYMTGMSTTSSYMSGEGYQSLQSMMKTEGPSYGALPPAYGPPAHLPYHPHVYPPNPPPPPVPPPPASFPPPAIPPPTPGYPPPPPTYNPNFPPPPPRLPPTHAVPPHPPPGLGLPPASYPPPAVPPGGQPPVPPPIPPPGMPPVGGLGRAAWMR
Sequence of CDK12 wt/CycK (Q9NYV4 whole entry): as the sequence (Q9NYV4 whole entry) above
Sequence of CDK12 wt/CycK (O75909 whole entry partner): as the sequence (O75909 whole entry partner) above

For `C=CC(=O)Nc1ccc(C(=O)N2CC[C@@H](Nc3ncc(Cl)c(OC)n3)C2)cc1C` [Example 26, (R)—N-(4-(3-((5-chloro-4-methoxypyrimidin-2-yl)amino)pyrrolidine-1-carbonyl)-2-methylphenyl)acrylamide], the IC50 against CDK12 and at CDK12 wt/CycK was < 100 nM throughout.

For the compound `C=CC(=O)Nc1ccc(C(=O)N2CC[C@@H](Nc3cc(C)c(Cl)cn3)C2)cc1` [Example 55, (R)—N-(4-(3-((5-chloro-4-methylpyridin-2-yl)amino)pyrrolidine-1-carbonyl)phenyl)acrylamide], the IC50 – broadly, the point on the concentration scale where inhibition reaches its midpoint – against CDK12 is < 100 nM; on CDK12 wt/CycK, 100 to 1000 nM.

As for `C=CC(=O)Nc1ccc(C(=O)N2CC[C@@H](Nc3ncc(Cl)c(C)n3)C2)cc1` [Example 52, (R)—N-(4-(3-((5-chloro-4-methylpyrimidin-2-yl)amino)pyrrolidine-1-carbonyl)phenyl)acrylamide], the IC50 against CDK12 was < 100 nM; at CDK12 wt/CycK, 100 to 1000 nM.

Take `C=CC(=O)Nc1ccc(C(=O)N2CC[C@@H](Nc3cc(OC)c(Cl)cn3)C2)cc1` [Example 54, (R)—N-(4-(3-((5-chloro-4-methoxypyridin-2-yl)amino)pyrrolidine-1-carbonyl)phenyl)acrylamide]: the IC50 at CDK12 and at CDK12 wt/CycK was < 100 nM in each case.

`C=CC(=O)Nc1ccc(C(=O)N2CC[C@@H](Nc3ncc(Cl)c(NC)n3)C2)cc1` [Example 62, (R)—N-(4-(3-((5-chloro-4-(methylamino)pyrimidin-2-yl)amino)pyrrolidine-1-carbonyl)phenyl)acrylamide]: the IC50 at CDK12 and on CDK12 wt/CycK was < 100 nM throughout.

Turning to `CCC(=O)Nc1ccc(C(=O)N2CC[C@@H](Nc3ncc(Br)cn3)C2)cc1` [Example 17, (R)—N-(4-(3-((5-bromopyrimidin-2-yl)amino)pyrrolidine-1-carbonyl)phenyl)propionamide], the concentration for half-maximal inhibition (IC50) at CDK12 and on CDK12 wt/CycK was 100 to 1000 nM each time.

On to `C=CC(=O)Nc1ccc(C(=O)N2CC[C@@H](Nc3ncc(Br)c(OC)n3)C2)cc1` [Example 20, (R)—N-(4-(3-((5-bromo-4-methoxypyrimidin-2-yl)amino)pyrrolidine-1-carbonyl)phenyl)acrylamide], for which the IC50 on CDK12 and at CDK12 wt/CycK was < 100 nM each time.

Turning to `C=CC(=O)Nc1ccc(C(=O)N2CC[C@@H](Nc3cnc(Cl)cn3)C2)cc1` [Example 53, (R)—N-(4-(3-((5-chloropyrazin-2-yl)amino)pyrrolidine-1-carbonyl)phenyl)acrylamide], the IC50 against CDK12 and on CDK12 wt/CycK was 100 to 1000 nM each time.

`C=CC(=O)Nc1ccc(C(=O)N2CC[C@@H](Nc3ncc(C4CC4)cn3)C2)cc1` [Example 58, (R)—N-(4-(3-((5-cyclopropylpyrimidin-2-yl)amino)pyrrolidine-1-carbonyl)phenyl)acrylamide]: the IC50 against CDK12 was < 100 nM; on CDK12 wt/CycK, 100 to 1000 nM.

As to `CN(C)C/C=C/C(=O)Nc1ccc(C(=O)Nc2cccc(Nc3ncc(Cl)c(-c4c[nH]c5ccccc45)n3)c2)cc1` [THZ1], the IC50 in assay [1] was < 200 nM.

In the case of `C=CC(=O)Nc1ccc(C(=O)N2CC[C@@H](Nc3ncc(Cl)c(OC)n3)C2)cc1` [Example 47, (R)—N-(4-(3-((5-chloro-4-methoxypyrimidin-2-yl)amino)pyrrolidine-1-carbonyl)phenyl)acrylamide], the IC50 on CDK12 and on CDK12 wt/CycK was < 100 nM in each case.

As for `C=CC(=O)Nc1ccc(C(=O)N2CC[C@@H](Nc3ncc(Cl)cn3)C2)cc1C` [Example 29, (R)—N-(4-(3-((5-chloropyrimidin-2-yl)amino)pyrrolidine-1-carbonyl)-2-methylphenyl)acrylamide], the values for the IC50 against CDK12 and on CDK12 wt/CycK were < 100 nM and 100 to 1000 nM, respectively.

Take `C=CC(=O)Nc1ccc(C(=O)N2CC[C@@H](Nc3ncc(Br)cn3)C2)cc1` [Example 19, (R)—N-(4-(3-((5-bromopyrimidin-2-yl)amino)pyrrolidine-1-carbonyl)phenyl)acrylamide]: the IC50 against CDK12 and at CDK12 wt/CycK was < 100 nM each time.

As to `C=CC(=O)N(C)c1ccc(C(=O)N2CC[C@@H](Nc3ncc(Cl)c(OC)n3)C2)cc1` [Example 25, (R)—N-(4-(3-((5-chloro-4-methoxypyrimidin-2-yl)amino)pyrrolidine-1-carbonyl)phenyl)-N-methylacrylamide], the half-maximal inhibitory concentration (IC50) on CDK12 and at CDK12 wt/CycK was < 100 nM throughout.

For the compound `C#Cc1cnc(N[C@@H]2CCN(C(=O)c3ccc(N(C)C(=O)C=C)cc3)C2)nc1` [Example 113, (R)—N-(4-(3-((5-ethynylpyrimidin-2-yl)amino)pyrrolidine-1-carbonyl)phenyl)-N-methylacrylamide], at CDK12, the IC50 lay in the range of 100 to 1000 nM.

For `C=CC(=O)Nc1ccc(C(=O)N2CC[C@@H](Nc3ncc(F)c(OC)n3)C2)cc1` [Example 59, (R)—N-(4-(3-((5-fluoro-4-methoxypyrimidin-2-yl)amino)pyrrolidine-1-carbonyl)phenyl)acrylamide], the figures for the IC50 against CDK12 and on CDK12 wt/CycK were 100 to 1000 nM and 1000 to 10000 nM, respectively.

Take `CCC(=O)Nc1ccc(C(=O)N2CC[C@@H](Nc3ncc(Br)c(OC)n3)C2)cc1` [Example 14, (R)—N-(4-(3-((5-bromo-4-methoxypyrimidin-2-yl)amino)pyrrolidine-1-carbonyl)phenyl)propionamide]: the IC50 at CDK12 and on CDK12 wt/CycK was < 100 nM in each case.

On to `CCC(=O)Nc1ccc(C(=O)N2CC[C@@H](Nc3ncc(C)c(OC4CC4)n3)C2)cc1` [Example 16, (R)—N-(4-(3-((4-cyclopropoxy-5-methylpyrimidin-2-yl)amino)pyrrolidine-1-carbonyl)phenyl)propionamide], for which the IC50 at CDK12 was 1000 to 10000 nM.

As for `C=CC(=O)N(C)c1ccc(C(=O)N2CC[C@@H](Nc3ncc(Cl)cn3)C2)cc1` [Example 28, (R)—N-(4-(3-((5-chloropyrimidin-2-yl)amino)pyrrolidine-1-carbonyl)phenyl)-N-methylacrylamide], the IC50 against CDK12 and on CDK12 wt/CycK was 100 to 1000 nM in each case.

On to `C=CC(=O)Nc1ccc(C(=O)N2CCC[C@@H](Nc3nccc(OC)n3)C2)cc1` [Example 37, (R)—N-(4-(3-((4-methoxypyrimidin-2-yl)amino)piperidine-1-carbonyl)phenyl)acrylamide], for which the IC50 on CDK12 lay in the range of 1000 to 10000 nM.

`C=CC(=O)Nc1ccc(C(=O)N2CC[C@@H](Nc3ncc(Cl)cn3)C2)cc1-c1cnn(C)c1` [Example 69, (R)—N-(4-(3-((5-chloropyrimidin-2-yl)amino)pyrrolidine-1-carbonyl)-2-(1-methyl-1H-pyrazol-4-yl)phenyl)acrylamide] yielded an IC50 on CDK12 of 100 to 1000 nM.

With `C=CC(=O)Nc1ccc(C(=O)N2CC[C@@H](Nc3ncc(Cl)c(OC)n3)C2)cc1-c1cnn(C)c1` [Example 4, (R)-N-(4-(3-((5-chloro-4-methoxypyrimidin-2-yl)amino)pyrrolidine-1-carbonyl)-2-(1-methyl-1H-pyrazol-4-yl)phenyl)acrylamide], the IC50 against CDK12 was in the range of 100 to 1000 nM.

The values above are taken from patent US10894788B2, “Inhibitors of cyclin-dependent kinases” (Kinnate Biopharma Inc., priority 2018, dated 2021).
